Experimental data published in patent US11242340B2, “Crystal forms of demethyleneberberine hydrochloride and preparation method therefor” (priority 2018, dated 2022).
“Also recorded” adds a separate entry of the source. Counter-ions that a name gives are not always drawn.

How the values were obtained:
[1] = Stability in strong light irradiation experiment (4,500 lx±500 lx); format: physicochemical
From the text: Demethyleneberberine hydrochloride crystals A, B, C and D are taken in an appropriate amount and placed in plates numbered as A3, B3, C3 and D3 respectively, and then the plates are placed in a strong light irradiation environment at 4,500 lx±500 lx respectively for stability test.

[2] = Solubility in ethanol system at different temperatures, HPLC; format: physicochemical; details: FIG. 15, hydrochloride
Description: Demethyleneberberine hydrochloride crystals A, B, C and D are taken in an appropriate amount and the solubility of demethyleneberberine hydrochloride crystals A, B, C and D at different temperatures in an ethanol system is studied respectively. 20 μl of sample is taken at each temperature node and detected by HPLC.

[3] = Determination of blood concentration in rats after ig administration; format: in vivo; details: male SD rats, ig 200 mg/kg, plasma, hydrochloride
Description: Male SD rats are adaptively bred for 3 days, and rats having (220±20) g body weight are selected and divided into 5 groups, namely, blank group, demethyleneberberine hydrochloride crystal form A group, demethyleneberberine hydrochloride crystal form B group, demethyleneberberine hydrochloride crystal form C group and demethyleneberberine hydrochloride crystal form D group. Food supply is stopped for 12 h for gastric emptying before the experiment. For the rats in the experimental groups, ig (intragastric) administration dosage is 200 mg/kg. 0.2 ml of blood is taken from the orbits of the rats at 5 min., 15 min., 30 min., 1 h, 2 h, 6 h and 12 h respectively after ig administration, the whole blood is centrifuged, and 100 μl of plasma is taken and frozen at −20° C. for use later. 100 μl of plasma sample is taken, 200 μl of methanol is added into the plasma sample, the mixture is vortexed for 5 min., and then centrifuged at 10,000 r/min. for 15 min. in a centrifuge; the supernatant is taken and tested by HPLC. […] Through calculation on the basis of the experimental results, it is determined: DAUC=3.675 μg×ml^−1×h>AAUC=1.247 μg×ml^−1×h>BAUC=1.150 μg×ml^−1×h>CAUC=1.077 μg×ml^−1×h.

[4] = Stability in high-temperature experiment (60±2° C.); format: physicochemical
Description: Demethyleneberberine hydrochloride crystals A, B, C and D are taken in an appropriate amount and placed in plates numbered as A1, B1, C1 and D1 respectively, and then the plates are placed in a high-temperature environment at 60±2° C. respectively for stability test.

[5] = Solubility in methanol system at different temperatures, HPLC; format: physicochemical; details: FIG. 14, hydrochloride
Description: Demethyleneberberine hydrochloride crystals A, B, C and D are taken in an appropriate amount and the solubility of demethyleneberberine hydrochloride crystals A, B, C and D at different temperatures in a methanol system is studied respectively. 20 μl of sample is taken at each temperature node and detected by HPLC.

[6] = Solubility in water system at different temperatures, HPLC; format: physicochemical; details: hydrochloride
Description: Demethyleneberberine hydrochloride crystals A, B, C and D are taken in an appropriate amount and the solubility of demethyleneberberine hydrochloride crystals A, B, C and D at different temperatures in a water system is studied respectively. 20 μl of sample is taken at each temperature node and detected by HPLC.

[7] = Stability in high-humidity experiment (RH90±5%); format: physicochemical
From the text: Demethyleneberberine hydrochloride crystals A, B, C and D are taken in an appropriate amount and placed in plates numbered as A2, B2, C2 and D2 respectively, and then the plates are placed in a high-humidity environment at RH90±5% respectively for stability test.

[8] = day 0, listed as D3, hydrochloride
[9] = day 5, listed as D3, hydrochloride
[10] = day 10, listed as D3, hydrochloride
[11] = 60±2° C., day 0, listed as D1, hydrochloride
[12] = 60±2° C., day 5, listed as D1, hydrochloride
[13] = 60±2° C., day 10, listed as D1, hydrochloride
[14] = day 0, listed as D2, hydrochloride
[15] = day 5, listed as D2, hydrochloride
[16] = day 10, listed as D2, hydrochloride

COc1ccc2cc3[n+](cc2c1OC)CCc1cc(O)c(O)cc1-3 [crystal form D, demethyleneberberine hydrochloride]
X-Ray Powder Diffraction ([1]; day 0): Unchanged | Content (%) [1, 8]: 99.78% | Content of Relevant Substance (%) [1, 8]: 0.22% | X-Ray Powder Diffraction ([1]; day 5): Unchanged | Content (%) [1, 9]: 99.58% | Content of Relevant Substance (%) [1, 9]: 0.42% | Content (%) [1, 10]: 99.64% | Content of Relevant Substance (%) [1, 10]: 0.36% | X-Ray Powder Diffraction [1, 10]: Changed | Stability in the strong light irradiation environment ([1]; hydrochloride): unstable in the long-term strong light irradiation environment, and undergoes crystal transformation | Solubility ranking among the four crystal forms [2]: solubility of crystal form A of demethyleneberberine hydrochloride>solubility of crystal form D | AUC ([3]; calculated from the experimental results): 3675 ng·h/mL | Cmax [3]: 1234 ng/mL | tmax [3]: 2 h | X-Ray Powder Diffraction ([4]; 60±2° C., day 0): Unchanged | Content (%) [4, 11]: 99.78% | Content of Relevant Substance (%) [4, 11]: 0.22% | X-Ray Powder Diffraction ([4]; 60±2° C., day 5): Unchanged | Content (%) [4, 12]: 99.83% | Content of Relevant Substance (%) [4, 12]: 0.17% | Content (%) [4, 13]: 99.71% | Content of Relevant Substance (%) [4, 13]: 0.29% | X-Ray Powder Diffraction [4, 13]: Changed | Stability in the high-temperature environment ([4]; 60±2° C., hydrochloride): unstable in the long-term high-temperature environment, and undergoes crystal transformation | Stability under stability test conditions (summary) ([4]; summary over high temperature, high humidity and strong light irradiation, hydrochloride): tends to have crystal transformation under conditions such as high temperature and strong light irradiation | Solubility ranking among the four crystal forms [5]: solubility of crystal form A of demethyleneberberine hydrochloride>solubility of crystal form D | Solubility comparison of the four crystal forms (summary) ([6]; summary over water, methanol and ethanol systems): lowest; also recorded: solubility of crystal form A of demethyleneberberine hydrochloride>solubility of crystal form D | Solubility ranking among the four crystal forms ([6]; water system, different temperatures, FIG. 13): solubility of crystal form A of demethyleneberberine hydrochloride>solubility of crystal form D | Stability in the high-humidity environment [7]: relatively stable | X-Ray Powder Diffraction ([7]; day 0): Unchanged | Content (%) [7, 14]: 99.48% | Content of Relevant Substance (%) [7, 14]: 0.52% | X-Ray Powder Diffraction ([7]; day 5): Unchanged | Content (%) [7, 15]: 99.41% | Content of Relevant Substance (%) [7, 15]: 0.59% | X-Ray Powder Diffraction ([7]; day 10): Unchanged | Content (%) [7, 16]: 99.32% | Content of Relevant Substance (%) [7, 16]: 0.68%
